These results are taken from US9469645B2, “Compounds and compositions for the treatment of parasitic diseases” (Novartis AG, priority 2009, dated 2016).

Test [1] concerns 3D7 P. falciparum strain. The test is described as follows: parasite proliferation assay in infected red blood cells (SYBR Green I). The conditions noted are these: 3D7 strain, read-out: EC50 3D7 strain. Type of test: cell-based, Plasmodium falciparum. A digest of the protocol: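 P. falciparum 3D7 grown in O+ human erythrocytes to 3–8% parasitemia and exposed to compounds. Proliferation read as the increase in parasite DNA. Detection used SYBR Green I in saponin/triton-X/EDTA lysis buffer, with overnight lysis at room temperature.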

Test [2] relates to W2 strain. The test is described as follows: parasite proliferation assay in infected red blood cells (SYBR Green I), W2 strain. Type of test: cell-based, Plasmodium falciparum. An excerpt:
(§1) Compounds of the invention can be assayed to measure their capacity to inhibit proliferation of parasitemia in infected red blood cells. The proliferation is quantified by the addition of SYBR Green I (INVITROGEN)® dye which has a high affinity for double stranded DNA.

In test [3] the test system is W2 strain. Described as above. Type of test: cell-based. The conditions noted are these: Erythrocyte.
Source text: as §1

Where [4] appears, read: Plasmodium falciparum, 3D7, Erythrocyte.
Setting [5] is: Plasmodium falciparum, Erythrocyte.

pEC50: −log10 of the molar value. Read-outs that look alike come from different tables or passages of the source. Where only a bound is given, the exact number is not on record here.

The pEC50 is −log10 of the EC50, conventionally taken in molar units. In the case of `CC(C)(N)C(=O)N1CCn2c(nc(-c3ccc(F)cc3)c2Nc2ccc(F)c(F)c2)C1(C)C` [Compound 585], the pEC50 in test [1] (setting [4]) is 8.00; in test [2] (setting [5]), 8.15.

Consider `Cc1cc(Nc2c(-c3ccc(F)cc3)nc3n2CCN(C(=O)C(C)(C)N)C3)cc(C)c1F` [Compound 428], for which the pEC50 was 6.77 in test [1] (setting [4]) and 6.62 in test [2] (setting [5]).

In the case of `Cc1cccc(Nc2c(-c3ccc(F)cc3)nc3n2CCN(C(=O)CN)C3(C)C)c1` [Compound 499], the pEC50 was 8.00 in test [1] (setting [4]) and 8.22 in test [2] (setting [5]).

In the case of `Cc1ccc(Nc2c(-c3ccc(F)cc3)nc3n2CCN(C(=O)C(C)(N)CC(C)C)C3)cc1` (centres unmarked) [Compound 503], the pEC50 in test [1] (setting [4]) is 6.92; in test [2] (setting [5]), 7.02.

As for `Cc1ccc(Nc2c(-c3ccc(F)cc3)nc3n2CCNC3(C)C)cc1C#N` [Compound 527], the negative-log EC50 (pEC50) is 8.40 in test [1] (setting [4]) and 8.22 in test [2] (setting [5]).

Turning to “tert-butyl 1-(2-(4-fluorophenyl)-5,6-dihydroimidazo[1,2-a]pyrazin-7(8H)-yl)-2-methyl-1-oxopropan-2-ylcarbamate [Compound 530]”, the values for the negative logarithm of the EC50 (pEC50) in test [1] and in test [2] (W2 strain) were 5.91 and 5.19, respectively.

With `CC(C)(C)[C@H](N)C(=O)N1CCn2c(nc(-c3ccc(F)cc3)c2Nc2ccc(F)cc2)C1` [Compound 478], the figures for the negative-log EC50 (pEC50) in test [1] (setting [4]) and in test [2] (setting [5]) were 7.22 and 7.41, respectively.

As for `Cc1ccc(Nc2c(-c3ccc(F)cc3)nc3n2C(C)(C)CN(C)C3(C)C)cc1` [Compound 539], the pEC50 in test [1] (setting [4]) and in test [2] (setting [5]) was 5.51 each time.

`Cc1cc(Nc2c(-c3ccc(F)cc3)nc3n2CCN(C(=O)C(C)(C)N)C3(C)C)ccc1F` [Compound 588]: the figures for the pEC50 in test [1] (setting [4]) and in test [2] (setting [5]) were 8.00 and 8.40, respectively.

Take `Cc1ccc(Nc2c(-c3ccc(F)c(Cl)c3)nc3n2CCNC3)cc1` [Compound 497]: the negative-log EC50 (pEC50) in test [1] (setting [4]) is 5.10; in test [2] (setting [5]), 5.23.

`Cc1ccc(Nc2c(-c3ccc(F)cc3)nc3n2CC(C)(C)NC3)cc1` [Compound 578]: the negative logarithm of the EC50 (pEC50) in test [1] (setting [4]) was 6.60; in test [2] (setting [5]), 6.47.

Take `CC(C)[C@H](O)C(=O)N1CCn2c(nc(-c3ccc(F)cc3)c2Nc2ccc(F)c(F)c2)C1` [Compound 440]: the pEC50 in test [1] (setting [4]) was 7.70; in test [2] (setting [5]), 7.55.

Take `CC(C)[C@H](N)C(=O)N1CCn2c(nc(-c3ccc(F)cc3)c2Nc2ccc(Cl)cc2)C1` [Compound 449]: the values for the pEC50 in test [1] (setting [4]) and in test [2] (setting [5]) were 7.52 and 7.59, respectively.

Take `N[C@@H](Cc1ccc(F)c(F)c1)C(=O)N1CCn2c(nc(-c3ccc(F)cc3)c2Nc2ccc(F)c(F)c2)C1` [Compound 433]: the pEC50 in test [1] (setting [4]) was 7.40; in test [2] (setting [5]), 7.31.

On to `N[C@@H](Cc1ccc(F)c(F)c1)C(=O)N1CCn2c(nc(-c3ccc(F)cc3)c2Nc2ccc(Cl)cc2)C1` [Compound 460], for which the pEC50 in test [1] (setting [4]) is 7.40; in test [2] (setting [5]), 7.48.

As for `CC1(C)c2nc(-c3ccc(F)cc3)c(Nc3cc(F)c(F)c(F)c3)n2CCN1C(=O)CN` [Compound 554], the negative logarithm of the EC50 (pEC50) in test [2] (setting [5]) is 8.15.

Take `O=C(CN1CCC(F)(F)C1)N1CCn2c(nc(-c3ccc(F)cc3)c2Nc2ccc(F)cc2)C1` [Compound 57]: the results for the pEC50 in test [1] (setting [4]) and in test [3] were 6.51 and 6.53, respectively.

On to `Cc1ccc(Nc2c(-c3ccc(F)cc3)nc3n2CCN(C(=O)[C@H](CCC(=O)OCc2ccccc2)NC(=O)OC(C)(C)C)C3)cc1` [Compound 150], for which the negative-log EC50 (pEC50) in test [1] (setting [4]) is 6.02; in test [3], 6.17.

Regarding `Cc1ccc(Nc2c(-c3ccc(F)cc3)nc3n2CCN(C(=O)Cc2ccncc2)C3)cc1` [Compound 227], the figures for the negative-log EC50 (pEC50) in test [1] (setting [4]) and in test [3] were 7.05 and 6.99, respectively.

On to `CCC(=O)Nc1ccc(C[C@H](N)C(=O)N2CCn3c(nc(-c4ccc(F)cc4)c3Nc3ccc(C)cc3)C2)cc1` [Compound 187], for which the pEC50 is 5.18 in test [1] (setting [4]) and 5.45 in test [3].

For `NCCC(=O)N1CCn2c(nc(-c3ccc(F)cc3)c2Nc2ccc(F)cc2)C1` [Compound 34], the pEC50 was 7.15 in test [1] (setting [4]) and 7.12 in test [3].

Turning to `Cc1ccc(Nc2c(-c3ccc(F)cc3)nc3n2CCN(C(=O)C(C)Oc2cccc(Cl)c2)C3)cc1` (centres unmarked) [Compound 203], the pEC50 was 6.01 in test [1] (setting [4]) and 6.43 in test [3].

For `NCC(=O)N1CCn2c(nc(-c3ccc(F)cc3)c2Nc2ccc(F)c(F)c2)C1` [Compound 30], the results for the negative logarithm of the EC50 (pEC50) in test [1] (setting [4]) and in test [3] were 7.52 and 7.64, respectively.

As for `NCC(=O)N1CCn2c(nc(-c3cccc(F)c3)c2Nc2ccc(F)cc2)C1` [Compound 56], the negative logarithm of the EC50 (pEC50) is 8.00 in test [1] (setting [4]) and 7.89 in test [3].

On to `CC[C@H](N)C(=O)N1CCn2c(nc(-c3ccc(F)cc3)c2Nc2ccc(C)cc2)C1` [Compound 85], for which the pEC50 in test [1] (setting [4]) is 7.70; in test [3], 7.51.

On to `CC1(C)CN(C(=O)CN)Cc2nc(-c3cccc(F)c3)c(Nc3ccc(Cl)c(F)c3)n21` [Compound 623], for which the values for the negative-log EC50 (pEC50) in test [1] (setting [4]) and in test [3] (Plasmodium falciparum) were 7.52 and 7.49, respectively.

`C[C@H](N)C(=O)N1CCn2c(nc(-c3ccc(F)cc3)c2Nc2ccc(Cl)c(F)c2)C1` [Compound 314]: the pEC50 in test [1] (setting [4]) was 7.52; in test [3] it was 7.70.

For `CC(C)(N)C(=O)N1CCn2c(nc(-c3ccc(F)cc3)c2Nc2cc(Cl)cc(Cl)c2)C1` [Compound 644], the pEC50 in test [1] (setting [4]) was 6.51; in test [3] (Plasmodium falciparum), 6.31.

As for `N[C@H](Cc1ccccc1)C(=O)N1CCn2c(nc(-c3ccc(F)cc3)c2Nc2ccc(Cl)c(F)c2)C1` [Compound 311], the pEC50 in test [1] (setting [4]) was 7.05; in test [3], 7.14.

With `Cc1ccc(Nc2c(-c3ccc(F)cc3)nc3n2CCN(C(=O)C[C@@H](O)c2ccccc2)C3)cc1` [Compound 135], the pEC50 in test [1] (setting [4]) was 7.30; in test [3], 7.48.

In the case of `CC1(C)c2nc(-c3ccc(F)cc3)c(Nc3ccc(F)cc3)n2CCN1C(=O)CNC(=O)CCc1ccc2oc3ccccc3c2c1` [Compound 727], the figures for the negative-log EC50 (pEC50) in test [1] (setting [4]) and in test [3] (Plasmodium falciparum) were 5.18 and 5.53, respectively.

`Fc1ccc(Nc2c(-c3ccc(F)cc3)nc3cnccn23)cc1` [Example 26, N,2-bis(4-fluorophenyl)imidazo[1,2-a]pyrazin-3-amine]: the pEC50 in test [1] (setting [4]) is under 5.00; in test [3], 5.26.

As for `CCC(=O)NCc1ccc(C[C@H](N)C(=O)N2CCn3c(nc(-c4ccc(F)cc4)c3Nc3ccc(C)cc3)C2)cc1` [Compound 219], the negative-log EC50 (pEC50) in test [1] (setting [4]) was 5.30; in test [3] it was 5.47.

Turning to `CC1(C)CN(C(=O)CN)Cc2nc(-c3cccc(F)c3)c(Nc3ccc(F)c(F)c3)n21` [Compound 622], the figures for the pEC50 in test [1] (setting [4]) and in test [3] (Plasmodium falciparum) were 7.00 and 6.92, respectively.

Take `Cc1ccc(Nc2c(-c3ccc(F)cc3)nc3n2CCN(C(=O)c2cc(=O)[nH]c(=O)[nH]2)C3)cc1` [Compound 165]: the pEC50 in test [1] (setting [4]) was under 4.99; in test [3], 5.33.

Regarding `CCC(C)(O)CC(=O)N1CCn2c(nc(-c3ccc(F)cc3)c2Nc2ccc(C)cc2)C1` (centres unmarked) [Compound 143], the negative logarithm of the EC50 (pEC50) is 6.82 in test [1] (setting [4]) and 6.66 in test [3].

Consider `Cc1ccc(Nc2c(-c3ccc(F)cc3)nc3n2CCN(C(=O)C2(N)CCCC2)C3)cc1` [Compound 140], for which the negative logarithm of the EC50 (pEC50) in test [1] (setting [4]) was 7.05; in test [3] it was 6.89.

As for `O=C(CN1CCOCC1)N1CCn2c(nc(-c3ccc(F)cc3)c2Nc2ccc(F)cc2)C1` [Compound 41], the negative logarithm of the EC50 (pEC50) in test [1] (setting [4]) is 5.58; in test [3], 5.75.

Regarding `O=C(CNCC(F)F)N1CCn2c(nc(-c3ccc(F)cc3)c2Nc2ccc(F)cc2)C1` [Compound 65], the pEC50 in test [1] (setting [4]) was 6.33; in test [3], 6.29.

On to `Cc1ccc(Nc2c(-c3ccc(F)cc3)nc3n2CCN(C(=O)N2CCC(N(C)C)C2)C3)cc1` (centres unmarked) [Example 251, (3-(dimethylamino)pyrrolidin-1-yl)(2-(4-fluorophenyl)-3-(p-tolylamino)-5,6-dihydroimidazo[1,2-a]pyrazin-7(8H)-yl)methanone], for which the pEC50 in test [1] (setting [4]) is 5.43; in test [3], 5.59.

In the case of `CC(C)(N)C(=O)N1CCn2c(nc(-c3ccc(F)cc3)c2Nc2cccc(F)c2)C1` [Compound 35], the pEC50 in test [1] (setting [4]) was 6.92; in test [3], 6.98.

`CC1(C)c2nc(-c3ccc(F)cc3)c(-c3ccc(F)c(Cl)c3)n2CCN1C(=O)CN` [Compound 706]: the pEC50 in test [1] (setting [4]) is 6.60; in test [3] (Plasmodium falciparum), 6.63.

Regarding `Cc1ccc(CC(N)C(=O)N2CCn3cc(-c4ccc(F)cc4)nc3C2(C)C)cc1` (centres unmarked) [Compound 700, 2-amino-1-(2-(4-fluorophenyl)-8,8-dimethyl-5,6-dihydroimidazo[1,2-a]pyrazin-7(8H)-yl)-3-p-tolylpropan-1-one], the pEC50 in test [1] (setting [4]) is under 5.02; in test [3] (Plasmodium falciparum), 5.15.

Regarding `CC1(C)N=C2c3nc(-c4ccc(F)cc4)c(Nc4ccc(F)c(F)c4)n3CCN2C1=O` [Compound 645, 8-(3,4-difluorophenylamino)-9-(4-fluorophenyl)-2,2-dimethyl-5,6-dihydrodiimidazo[1,2-a:2′,1′-c]pyrazin-3 (2H)-one], the negative logarithm of the EC50 (pEC50) in test [1] (setting [4]) is 5.29; in test [3] (Plasmodium falciparum), 5.12.

As to `O=C(CN1CCCC(C(F)(F)F)C1)N1CCn2c(nc(-c3ccc(F)cc3)c2Nc2ccc(F)cc2)C1` (centres unmarked) [Compound 63], the values for the pEC50 in test [1] (setting [4]) and in test [3] were 5.71 and 5.79, respectively.

As for `CC1(C)c2nc(-c3ccc(F)cc3)cn2CCN1C(=O)C(N)CC1CCCCC1` (centres unmarked) [Compound 703], the negative logarithm of the EC50 (pEC50) is 5.07 in test [1] (setting [4]) and 5.08 in test [3] (Plasmodium falciparum).

For `Cc1ccc(Nc2c(-c3ccc(F)cc3)nc3n2CCN(C(=O)CN2CCCC(F)(F)C2)C3)cc1` [Compound 74], the pEC50 in test [1] (setting [4]) is 7.15; in test [3], 7.17.

As for `Cc1ccc(Nc2c(-c3ccc(F)cc3)nc3n2CCN(C(=O)C(Nc2ccc(C)cc2)c2ccccc2)C3)cc1` (centres unmarked) [Compound 371], the pEC50 in test [1] (setting [4]) was 5.82; in test [3], 5.89.
